This note sets out measurements from PMC4769034 (Journal of medicinal chemistry, 2015).

≈ marks a conversion by molar mass, not a printed value. Entries after “also recorded” stand apart in the source; their conditions may differ. Bounds are passed on as bounds.

The first data set concerns the target T1, EPAC1 (Homo sapiens, UniProt O95398).
T1 sequence (O95398 1-881 isoform O95398-3): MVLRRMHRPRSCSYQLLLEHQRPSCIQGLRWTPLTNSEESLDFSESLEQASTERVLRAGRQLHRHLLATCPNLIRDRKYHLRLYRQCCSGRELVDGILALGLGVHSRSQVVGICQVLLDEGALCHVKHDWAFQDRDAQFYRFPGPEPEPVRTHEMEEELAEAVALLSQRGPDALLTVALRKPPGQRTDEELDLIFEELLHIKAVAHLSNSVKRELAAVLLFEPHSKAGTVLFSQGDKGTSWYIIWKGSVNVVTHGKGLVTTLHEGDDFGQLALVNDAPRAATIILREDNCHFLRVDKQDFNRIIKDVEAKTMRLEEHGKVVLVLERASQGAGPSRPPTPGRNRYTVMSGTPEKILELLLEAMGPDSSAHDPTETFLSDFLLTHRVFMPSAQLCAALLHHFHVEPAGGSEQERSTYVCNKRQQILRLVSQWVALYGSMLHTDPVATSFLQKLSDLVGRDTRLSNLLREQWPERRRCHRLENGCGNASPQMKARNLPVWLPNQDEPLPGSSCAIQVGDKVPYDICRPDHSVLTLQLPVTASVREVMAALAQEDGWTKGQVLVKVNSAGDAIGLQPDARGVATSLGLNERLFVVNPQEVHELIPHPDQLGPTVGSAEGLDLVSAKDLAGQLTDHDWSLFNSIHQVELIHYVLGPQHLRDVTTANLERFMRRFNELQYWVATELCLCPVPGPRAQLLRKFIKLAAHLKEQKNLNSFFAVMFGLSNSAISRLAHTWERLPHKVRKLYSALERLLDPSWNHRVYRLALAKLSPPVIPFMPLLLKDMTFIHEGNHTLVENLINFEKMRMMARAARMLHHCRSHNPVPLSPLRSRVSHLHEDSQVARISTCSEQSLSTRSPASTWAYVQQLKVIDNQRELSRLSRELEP
Description: In vitro EPAC1 GEF activity assay. The class given is biochemical.
Conditions: not given
A word on the IC50: it is the concentration that inhibits the measured activity by half. A higher IC50 goes with weaker potency. For the compound `CC(C)(C)c1cc(C(=O)/C(C#N)=N/Nc2cc(Cl)cc(Cl)c2)no1` [Compound 22, 2-(5-tert-Butylisoxazol-3-yl)-N′-(3,5-dichlorophenyl)-2-oxoacetohydrazonoyl Cyanide], the IC50 was below 5 µM.

System in another data set: not listed separately
The data set can be described thus: Solubility in water by HPLC analysis. Conditions: water.
Broadly, the solubility is the dissolved amount per volume that the medium holds. Read a low solubility as a poorly soluble substance. `CC(C)(C)c1cc(C(=O)/C(C#N)=N/Nc2ccc(F)c(Cl)c2)no1` [Compound 31, 2-(5-tert-Butylisoxazol-3-yl)-N′-(3-chloro-4-fluorophenyl)-2-oxoacetohydrazonoyl Cyanide] yielded a solubility at 24 h of 82.6 ± 3.6 µg/mL (≈ 237 µM).
Same read-out and setting: the result for `CC(C)(C)c1cc(C(=O)/C(C#N)=N/Nc2cc(Cl)c(Cl)c(Cl)c2)no1` [Compound 35, 2-(5-tert-Butylisoxazol-3-yl)-2-oxo-N′-(3,4,5-trichlorophenyl)acetohydrazonoyl Cyanide] reads 12.7 ± 1 µg/mL (≈ 31.8 µM); that for `CC(C)(C)c1cc(C(=O)/C(C#N)=N/Nc2cc(F)c(F)c(F)c2)no1` [Compound 36, 2-(5-tert-Butylisoxazol-3-yl)-2-oxo-N′-(3,4,5-trifluorophenyl)acetohydrazonoyl Cyanide], 75.7 ± 7.1 µg/mL (≈ 216 µM); that for `N#C/C(=N\Nc1cc(Cl)c(Cl)c(Cl)c1)C(=O)c1cc(C2CCCCC2)on1` [Compound 47, 2-(5-Cyclohexylisoxazol-3-yl)-2-oxo-N′-(3,4,5-trichlorophenyl)acetohydrazonoyl Cyanide], 10.1 ± 0.79 µg/mL (≈ 23.7 µM).

For a further data set, the target named is T2, EPAC2 (Mus musculus, UniProt Q9EQZ6).
T2 sequence (Q9EQZ6 1-993 isoform Q9EQZ6-3): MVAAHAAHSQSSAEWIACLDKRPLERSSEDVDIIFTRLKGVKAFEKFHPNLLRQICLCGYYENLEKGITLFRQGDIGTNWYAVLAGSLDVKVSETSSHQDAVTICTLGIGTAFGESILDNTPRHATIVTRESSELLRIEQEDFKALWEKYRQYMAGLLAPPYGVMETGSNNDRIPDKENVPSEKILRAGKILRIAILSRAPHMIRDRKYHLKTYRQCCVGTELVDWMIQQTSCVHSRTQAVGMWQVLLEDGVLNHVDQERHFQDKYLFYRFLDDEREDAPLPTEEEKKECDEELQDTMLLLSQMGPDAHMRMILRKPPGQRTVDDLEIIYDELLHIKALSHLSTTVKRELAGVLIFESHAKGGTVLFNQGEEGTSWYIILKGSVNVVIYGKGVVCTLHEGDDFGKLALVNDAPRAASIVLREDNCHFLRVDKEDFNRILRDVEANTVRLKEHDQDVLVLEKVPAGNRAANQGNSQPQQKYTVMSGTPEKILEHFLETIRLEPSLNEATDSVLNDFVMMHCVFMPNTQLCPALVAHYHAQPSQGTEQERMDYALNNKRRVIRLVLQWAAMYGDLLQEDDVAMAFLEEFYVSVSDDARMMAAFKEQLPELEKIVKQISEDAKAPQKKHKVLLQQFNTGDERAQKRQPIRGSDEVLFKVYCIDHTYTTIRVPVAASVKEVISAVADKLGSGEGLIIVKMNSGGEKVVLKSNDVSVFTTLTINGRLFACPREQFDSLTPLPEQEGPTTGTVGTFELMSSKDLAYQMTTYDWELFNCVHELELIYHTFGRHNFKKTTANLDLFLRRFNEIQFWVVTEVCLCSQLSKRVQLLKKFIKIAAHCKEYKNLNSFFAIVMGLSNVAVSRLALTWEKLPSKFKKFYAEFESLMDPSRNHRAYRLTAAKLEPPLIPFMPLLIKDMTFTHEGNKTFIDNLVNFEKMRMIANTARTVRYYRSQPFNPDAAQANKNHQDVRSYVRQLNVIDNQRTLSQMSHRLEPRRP
The data set can be described thus: 8-NBD-cAMP competition assay. Conditions: 8-NBD-cAMP competition.
Turning to `CC(=O)c1cccc(N/N=C(\C#N)C(=O)c2cc(C(C)(C)C)on2)c1` [Compound 17, N′-(3-Acetylphenyl)-2-(5-tert-butylisoxazol-3-yl)-2-oxoacetohydrazonoyl Cyanide], the “EPAC2 binding activity in words” value is “dramatic loss of activity”.
In the case of `COc1cccc(N/N=C(\C#N)C(=O)c2cc(C(C)(C)C)on2)c1` [Compound 18, 2-(5-tert-Butylisoxazol-3-yl)-N′-(3-methoxyphenyl)-2-oxoacetohydrazonoyl Cyanide], the “EPAC2 binding activity in words” value is reported as “significant loss of activity”.
Take `CC(C)(C)c1cc(C(=O)/C(C#N)=N/Nc2cccc(CO)c2)no1` [Compound 19, 2-(5-tert-Butylisoxazol-3-yl)-N′-(3-(hydroxymethyl)phenyl)-2-oxoacetohydrazonoyl Cyanide]: the “EPAC2 binding activity in words” value is reported as “significant loss of activity”.
With `N#C/C(=N\Nc1cccc(Cl)c1)C(=O)c1cc(-c2ccccc2)on1` [Compound 41, N′-(3-Chlorophenyl)-2-oxo-2-(5-phenylisoxazol-3-yl)-acetohydrazonoyl Cyanide], the “EPAC2 binding activity in words” value was “totally inactive”.
On to `N#C/C(=N\Nc1cc(Cl)c(Cl)c(Cl)c1)C(=O)c1cc(-c2ccccc2)on1` [Compound 48, N′-(3,4,5-Trichlorophenyl)-2-oxo-2-(5-phenylisoxazol-3-yl)-acetohydrazonoyl Cyanide], for which the “EPAC2 binding activity in words” value is “totally inactive”.
For `CC(C)(C)c1cc(NC(=O)C(C#N)=NNc2cccc(Cl)c2)no1` [Compound 51, N-(5-tert-Butyl-isoxazol-3-yl)-2-[(3-chlorophenyl)-hydrazono]-2-cyanoacetamide], the “EPAC2 binding activity in words” value was “completely inactive”.
Take `Cc1cc(NC(=O)C(C#N)=NNc2cccc(Cl)c2)no1` [Compound 52, 2-[(3-Chlorophenyl)-hydrazono]-2-cyano-N-(5-methyl-isoxazol-3-yl)acetamide]: the “EPAC2 binding activity in words” value was “completely inactive”.
Same read-out and setting: the result for `CC(C)(C)c1cc(NC(=O)c2cccc(Cl)c2)no1` [Compound 53, N-(5-(tert-Butyl)isoxazol-3-yl)-3-chlorobenzamide] reads “entire loss of potency; also recorded: no significant activity”; that for `CC(C)(C)c1cc(NC(=O)Nc2cccc(Cl)c2)no1` [Compound 54, 1-(5-tert-Butylisoxazol-3-yl)-3-(3-chlorophenyl)urea], “entire loss of potency; also recorded: no significant activity”; that for `CC(C)(C)c1cc(C(=O)Nc2cccc(Cl)c2)no1` [Compound 55, 5-tert-Butyl-N-(3-chlorophenyl)isoxazole-3-carboxamide], “entire loss of potency; also recorded: no significant activity”.
Still for that read-out and setting: for `CC(C)(C)c1cc(C(=O)N/N=C/c2cccc(Cl)c2)no1` [Compound 56, (E)-5-(tert-Butyl)-N′-(3-chlorobenzylidene)isoxazole-3-carbohydrazide] the value was “entire loss of potency; also recorded: no significant activity”; for `CC(C)(C)c1cc(-c2n[nH]c(N)c2/N=N/c2cccc(Cl)c2)no1` [Compound 57, 3-(5-tert-Butylisoxazol-3-yl)-4-((3-chlorophenyl)diazenyl)-1H-pyrazol-5-amine], “entire loss of potency; also recorded: no significant activity”.

The data set is the same for the next values; noted with them: vs compound 1.
As for `CC(C)(C)c1cc(C(=O)/C(C#N)=N/Nc2ccccc2)no1` [Compound 8, 2-(5-tert-Butylisoxazol-3-yl)-N′-phenyl-2-oxoacetohydrazonoyl Cyanide], the “fold loss of EPAC2 binding affinity / inhibitory activity in comparison with 1” value is given as around 7 fold.
In the case of `CC(C)(C)c1cc(C(=O)/C(C#N)=N/Nc2ccccc2Cl)no1` [Compound 9, 2-(5-tert-Butylisoxazol-3-yl)-N′-(2-chlorophenyl)-2-oxoacetohydrazonoyl Cyanide], the “fold loss of EPAC2 binding affinity / inhibitory activity in comparison with 1” value was 3 fold.
Same read-out and setting: for `CC(C)(C)c1cc(C(=O)/C(C#N)=N/Nc2ccc(Cl)cc2)no1` [Compound 10, 2-(5-tert-Butylisoxazol-3-yl)-N′-(4-chlorophenyl)-2-oxoacetohydrazonoyl Cyanide] the value was 3 fold.
Turning to `CC(C)(C)c1cc(C(=O)/C(C#N)=N/Nc2cc(Cl)cc(Cl)c2)no1` [Compound 22, 2-(5-tert-Butylisoxazol-3-yl)-N′-(3,5-dichlorophenyl)-2-oxoacetohydrazonoyl Cyanide], the “fold more potent than parent compound 1” value was “about 5 fold”.
The same measure, in the same setting: the result for `CC(C)(C)c1cc(C(=O)/C(C#N)=N/Nc2ccc(Cl)c(Cl)c2)no1` [Compound 23, 2-(5-tert-Butylisoxazol-3-yl)-N′-(3,4-dichlorophenyl)-2-oxoacetohydrazonoyl Cyanide] reads around 3 fold.

Staying with this data set, now noted: vs compound 8.
For `CC(C)(C)c1cc(C(=O)/C(C#N)=N/Nc2cccc(Br)c2)no1` [Compound 11, 2-(5-tert-Butylisoxazol-3-yl)-N′-(3-bromophenyl)-2-oxoacetohydrazonoyl Cyanide], the “fold increase in potency compared to nonsubstituted analogue 8” value is 3–4 fold.
On the same count and under the same terms, the result for `CC(C)(C)c1cc(C(=O)/C(C#N)=N/Nc2cccc(F)c2)no1` [Compound 12, 2-(5-tert-Butylisoxazol-3-yl)-N′-(3-fluorophenyl)-2-oxoacetohydrazonoyl Cyanide] reads 3–4 fold; that for `CC(C)(C)c1cc(C(=O)/C(C#N)=N/Nc2cccc(C(F)(F)F)c2)no1` [Compound 13, 2-(5-tert-Butylisoxazol-3-yl)-N′-(3-trifluoromethylphenyl)-2-oxoacetohydrazonoyl Cyanide], “approximately 5 fold”.
On the same count and under the same terms, for `CC(C)(C)c1cc(C(=O)/C(C#N)=N/Nc2cccc([N+](=O)[O-])c2)no1` [Compound 14, 2-(5-tert-Butylisoxazol-3-yl)-N′-(3-nitrophenyl)-2-oxoacetohydrazonoyl Cyanide] the value was “about 2 fold”; for `Cc1cccc(N/N=C(\C#N)C(=O)c2cc(C(C)(C)C)on2)c1` [Compound 20, 2-(5-tert-Butylisoxazol-3-yl)-2-oxo-N′-m-tolylacetohydrazonoyl Cyanide], “about 2 fold”.
